Laboratory results as given in ChEMBL document CHEMBL1140009, “Synthesis, determination of stereochemistry, and evaluation of new bisindole alkaloids from the myxomycete Arcyria ferruginea: an approach for Wnt signal inhibitor” (Bioorg Med Chem Lett, 2007).

System: Cancer cell lines
Experiment: Inhibition of Wnt signal in cancer cells by luciferase reporter gene assay
Format: cell-based
Details: Homo sapiens

Row | Compound | Activity
1 | O=C1NC(=O)c2c1c1c3ccc(O)cc3[nH]c1c1[nH]c3cc(O)ccc3c21 | Dose-dependent effect
2 | O=C1NC(=O)[C@@H](c2c[nH]c3cc(O)ccc23)[C@H]1c1c[nH]c2cc(O)ccc12 | Dose-dependent effect
